Experimental data from publication PMC7605558 (bioRxiv, 2020).
Read-outs that look alike come from different tables or passages of the source.

Tests used:
SARS-CoV-2 pseudovirus = type: cell-based
SARS-CoV M^pro [1] = molecular target: T1, SARS-CoV M^pro (Severe acute respiratory syndrome coronavirus, UniProt P0C6X7); experiment: biochemical
MERS-CoV M^pro [2] = molecular target: T2, MERS-CoV M^pro (Middle East respiratory syndrome-related coronavirus, UniProt K9N7C7); experiment: biochemical
HCoV-OC43 M^pro [3] = molecular target: T3, HCoV-OC43 M^pro (Human coronavirus OC43, UniProt P0C6X6); experiment: biochemical
T3 sequence (P0C6X6 3247-3549 limits assumed): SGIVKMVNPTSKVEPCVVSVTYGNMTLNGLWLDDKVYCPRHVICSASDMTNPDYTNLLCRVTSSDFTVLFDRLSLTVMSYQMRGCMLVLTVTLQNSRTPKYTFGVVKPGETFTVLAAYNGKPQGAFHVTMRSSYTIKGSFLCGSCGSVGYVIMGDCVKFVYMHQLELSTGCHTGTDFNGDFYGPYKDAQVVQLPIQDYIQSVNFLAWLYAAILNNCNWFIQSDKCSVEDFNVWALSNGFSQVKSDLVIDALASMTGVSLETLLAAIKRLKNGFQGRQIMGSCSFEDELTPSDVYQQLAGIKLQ

MERS-CoV M^pro [4] = molecular target: T2, MERS-CoV M^pro; type: binding
SARS-CoV M^pro [5] = molecular target: T1, SARS-CoV M^pro; type: binding
HCoV-OC43 M^pro [6] = molecular target: T3, HCoV-OC43 M^pro; type: binding
HCoV-229E [7] = experiment: microbe, parasite or virus in culture; type: cell-based; details: Human coronavirus 229E, read-out: HCoV-229E (EC50, μM)
HCoV-NL63 = experiment: microbe, parasite or virus in culture; type: cell-based; details: Human coronavirus NL63, read-out: HCoV-NL63 (EC50, μM)
SARS-CoV = experiment: microbe, parasite or virus in culture; type: cell-based; details: Severe acute respiratory syndrome coronavirus, Vero 76, 96 h, read-out: SARS-CoV (EC50, μM)
HCoV-OC43 = experiment: Combination therapy with remdesivir in HCoV-OC43 CPE assay; type: cell-based; details: combination ratios 8:1 to 1:8
SARS-CoV-2 M^pro = details: cited from earlier work
SARS-CoV-2 = details: read-out: SARS-CoV-2 (EC50, μM), cellular antiviral activity; CPE assay; cited from earlier work
HCoV-229E [8] = details: read-out: EC50 against HCoV-229E; cited from earlier work
SARS-CoV M^pro [9] = molecular target: T1, SARS-CoV M^pro; details: cited from earlier work

T2 sequence (K9N7C7 3248-3553 limits assumed): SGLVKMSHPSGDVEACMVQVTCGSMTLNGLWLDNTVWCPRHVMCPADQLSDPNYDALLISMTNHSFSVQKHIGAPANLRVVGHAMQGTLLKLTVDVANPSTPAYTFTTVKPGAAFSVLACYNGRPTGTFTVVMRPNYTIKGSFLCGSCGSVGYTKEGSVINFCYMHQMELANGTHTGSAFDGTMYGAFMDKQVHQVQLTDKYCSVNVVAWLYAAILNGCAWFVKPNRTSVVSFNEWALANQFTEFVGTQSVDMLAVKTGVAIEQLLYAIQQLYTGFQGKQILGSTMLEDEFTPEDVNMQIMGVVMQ

`CCOC(=O)[C@H]1O[C@@H]1C(=O)N[C@@H](CC(C)C)C(=O)NCCC(C)C` [E-64d] showed an IC50 (SARS-CoV-2 pseudovirus; read-out: IC50 of SARS-CoV-2 pseudovirus entry) of 910 ± 100 nM.
`CC(C)(C)NC(=O)N[C@H](C(=O)N1C[C@H]2[C@@H]([C@H]1C(=O)NC(CC1CCC1)C(=O)C(N)=O)C2(C)C)C(C)(C)C` (stereo partly drawn) [boceprevir] showed an IC50 (SARS-CoV M^pro [1]) of 6630 nM, a Ki (SARS-CoV M^pro [1]; KI against SARS-CoV M^pro) of 1430 nM and an IC50 (MERS-CoV M^pro [2]) of 10400 nM. The Ki (MERS-CoV M^pro [2]) was 1650 ± 120 nM, the IC50 (HCoV-OC43 M^pro [3]) was 9000 nM and the Ki (HCoV-OC43 M^pro [3]) was 2290 nM. For the same compound, the “effect on cathepsin L-mediated SARS-CoV-2 pseudovirus entry” value (SARS-CoV-2 pseudovirus) was “no effect”, the “MERS-CoV M^pro (ΔTm, °C)” value (MERS-CoV M^pro [4]) was 2.46 ± 0.07 °C and the “SARS-CoV M^pro (ΔTm, °C)” value (SARS-CoV M^pro [5]) was 3.94 ± 0.13 °C. For the same compound, the “HCoV-OC43 M^pro (ΔTm, °C)” value (HCoV-OC43 M^pro [6]) was 1.02 ± 0.05 °C, the EC50 (HCoV-229E [7]) was 14.1 ± 1.5 µM and the EC50 (HCoV-NL63) was 16.9 ± 5.87 µM. The EC50 (SARS-CoV) was 54.2 ± 7.76 µM, the “antiviral effect in combination with remdesivir (combination indices)” value (HCoV-OC43) was “additive antiviral effect” and the IC50 (SARS-CoV-2 M^pro; read-out: IC50 against SARS-CoV-2 M^pro, enzymatic assay) was […]. The EC50 (SARS-CoV-2) was 1.31 ± 0.58 µM.
In the case of `CCC(CC)COC(=O)[C@H](C)N[P@](=O)(OC[C@H]1O[C@@](C#N)(c2ccc3c(N)ncnn23)[C@H](O)[C@@H]1O)Oc1ccccc1` [remdesivir], the “HCoV-OC43 M^pro (ΔTm, °C)” value (HCoV-OC43 M^pro [6]) is reported as 0.00 ± 0.02 °C, the “effect on HCoV-OC43 M^pro stability (Tm)” value (HCoV-OC43 M^pro [6]) is reported as “no effect” and the EC50 (HCoV-229E [7]) is reported as 0.03 µM. For the same compound, the EC50 (HCoV-NL63) was 0.63 ± 0.041 µM.
In the case of `CCOC(=O)/C=C/[C@H](C[C@@H]1CCNC1=O)NC(=O)[C@@H](CC(=O)[C@@H](NC(=O)c1cc(C)on1)C(C)C)Cc1ccc(F)cc1` [rupintrivir], the “inhibition of SARS-CoV-2 M^pro” value (SARS-CoV-2 M^pro) is listed as “failed to inhibit”, the EC50 (HCoV-229E [8]) is listed as 300 nM and the “inhibition of SARS-CoV M^pro” value (SARS-CoV M^pro [9]) is listed as “failed to inhibit”.
